Results taken from US10040781B2, “Tank-binding kinase inhibitor compounds” (Gilead Sciences, Inc., priority 2014, dated 2018).

Columns and labels:
TBK1 = TBK1 (Homo sapiens (Human), UniProt Q9UHD2); assay: TBK1 TR-FRET enzymatic assay;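 further: phosphorylation of a biotinylated Ser/Thr peptide by purified full-length recombinant TBK1, read by TR-FRET after 240 min at 25 °C, IC50 is the geometric mean of at least four runs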
hJAK2 = hJAK2 (Homo sapiens (Human), UniProt O60674); assay: hJAK2 LANCE TR-FRET enzymatic assay; assay type: biochemical; settings: read-out: JAK2 IC50
Sequence of hJAK2 (O60674 whole entry): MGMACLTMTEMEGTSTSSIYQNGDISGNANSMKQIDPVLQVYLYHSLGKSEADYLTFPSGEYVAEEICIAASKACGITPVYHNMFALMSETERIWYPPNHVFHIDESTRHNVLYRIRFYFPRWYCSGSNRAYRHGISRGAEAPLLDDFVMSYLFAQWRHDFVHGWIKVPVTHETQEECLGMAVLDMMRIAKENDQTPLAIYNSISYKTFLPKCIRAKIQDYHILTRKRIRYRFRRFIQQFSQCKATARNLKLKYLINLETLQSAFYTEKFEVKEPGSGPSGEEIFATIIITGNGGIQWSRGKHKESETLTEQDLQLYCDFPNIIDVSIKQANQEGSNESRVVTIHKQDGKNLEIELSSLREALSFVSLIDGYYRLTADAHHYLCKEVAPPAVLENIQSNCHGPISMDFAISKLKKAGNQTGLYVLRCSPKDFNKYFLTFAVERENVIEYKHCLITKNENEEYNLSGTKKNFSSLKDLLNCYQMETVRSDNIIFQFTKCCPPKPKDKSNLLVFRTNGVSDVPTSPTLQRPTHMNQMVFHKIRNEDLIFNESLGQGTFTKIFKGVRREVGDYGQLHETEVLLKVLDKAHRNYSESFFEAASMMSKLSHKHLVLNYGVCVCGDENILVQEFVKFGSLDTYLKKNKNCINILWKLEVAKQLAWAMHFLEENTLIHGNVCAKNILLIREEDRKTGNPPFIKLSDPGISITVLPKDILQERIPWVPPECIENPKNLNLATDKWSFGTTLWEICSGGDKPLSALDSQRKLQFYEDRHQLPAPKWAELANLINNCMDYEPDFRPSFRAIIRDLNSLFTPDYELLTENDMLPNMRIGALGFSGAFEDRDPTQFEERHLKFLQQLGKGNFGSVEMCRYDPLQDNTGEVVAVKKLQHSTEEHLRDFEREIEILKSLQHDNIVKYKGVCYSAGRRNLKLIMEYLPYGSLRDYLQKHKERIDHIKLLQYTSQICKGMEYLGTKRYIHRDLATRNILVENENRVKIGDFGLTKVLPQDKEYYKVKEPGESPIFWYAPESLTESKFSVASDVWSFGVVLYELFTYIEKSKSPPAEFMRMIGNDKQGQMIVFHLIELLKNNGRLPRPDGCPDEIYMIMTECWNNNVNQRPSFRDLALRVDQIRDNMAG

IKKε = IKKε (Homo sapiens (Human), UniProt Q14164); assay: IKKε TR-FRET enzymatic assay; assay type: biochemical; settings: read-out: IKKe IC50
Sequence of IKKε (Q14164 whole entry): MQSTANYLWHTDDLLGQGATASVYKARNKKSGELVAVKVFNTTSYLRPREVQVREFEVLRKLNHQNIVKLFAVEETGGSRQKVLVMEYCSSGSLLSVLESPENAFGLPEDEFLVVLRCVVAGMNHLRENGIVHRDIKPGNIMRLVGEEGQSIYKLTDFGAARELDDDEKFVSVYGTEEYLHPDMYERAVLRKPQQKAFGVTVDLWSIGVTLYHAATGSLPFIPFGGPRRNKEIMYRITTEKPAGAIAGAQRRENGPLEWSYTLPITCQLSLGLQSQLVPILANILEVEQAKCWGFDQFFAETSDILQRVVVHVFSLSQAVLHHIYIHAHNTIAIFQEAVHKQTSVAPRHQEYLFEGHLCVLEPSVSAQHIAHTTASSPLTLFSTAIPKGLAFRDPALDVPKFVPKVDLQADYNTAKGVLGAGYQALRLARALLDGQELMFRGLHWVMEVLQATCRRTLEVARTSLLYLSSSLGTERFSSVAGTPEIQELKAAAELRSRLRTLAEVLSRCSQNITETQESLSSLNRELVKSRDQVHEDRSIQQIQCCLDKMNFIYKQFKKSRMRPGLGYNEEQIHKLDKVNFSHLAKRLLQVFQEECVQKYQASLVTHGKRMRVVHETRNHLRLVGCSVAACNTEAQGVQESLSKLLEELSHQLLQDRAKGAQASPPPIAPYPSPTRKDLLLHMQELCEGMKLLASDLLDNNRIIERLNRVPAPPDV

Sequence of TBK1 (Q9UHD2 whole entry): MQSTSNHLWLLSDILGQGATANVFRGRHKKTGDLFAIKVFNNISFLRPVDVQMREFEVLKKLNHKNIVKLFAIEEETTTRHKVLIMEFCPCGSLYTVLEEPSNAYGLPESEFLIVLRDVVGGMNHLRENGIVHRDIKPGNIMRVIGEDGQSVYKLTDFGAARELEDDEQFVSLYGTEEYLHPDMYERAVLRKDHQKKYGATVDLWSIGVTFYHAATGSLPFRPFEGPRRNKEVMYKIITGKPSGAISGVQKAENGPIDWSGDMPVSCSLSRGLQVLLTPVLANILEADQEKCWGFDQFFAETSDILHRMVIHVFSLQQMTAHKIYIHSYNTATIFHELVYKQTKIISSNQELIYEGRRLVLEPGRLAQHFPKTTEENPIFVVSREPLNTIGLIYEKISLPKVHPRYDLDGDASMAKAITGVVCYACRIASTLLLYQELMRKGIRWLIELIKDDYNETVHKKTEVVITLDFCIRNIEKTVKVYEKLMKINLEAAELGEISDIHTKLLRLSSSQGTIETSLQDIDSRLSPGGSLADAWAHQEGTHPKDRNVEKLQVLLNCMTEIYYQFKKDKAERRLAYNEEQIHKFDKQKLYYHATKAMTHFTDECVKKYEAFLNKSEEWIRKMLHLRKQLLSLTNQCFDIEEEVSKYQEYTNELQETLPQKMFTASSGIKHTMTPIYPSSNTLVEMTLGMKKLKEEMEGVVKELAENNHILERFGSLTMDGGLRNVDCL

Structure (SMILES)	IC50 (TBK1)	IC50 (hJAK2)	IC50 (IKKε)
N#Cc1cc(-c2ncnc(Nc3ccc(N4CCOCC4)cc3)n2)ccc1N1CCCC1 [Example 53, 5-(4-((4-morpholinophenyl)amino)-1,3,5-triazin-2-yl)-2-(pyrrolidin-1-yl)benzonitrile]	5 nM	261 nM	18 nM
N#Cc1cc(-c2ncnc(Nc3ccc(C(N)=O)cc3)n2)ccc1OC1CCOCC1 [Example 55]	2 nM	> 1000 nM	5 nM
N#Cc1cc(-c2ncnc(Nc3ccc(C4CCN(C5COC5)CC4)cc3)n2)ccc1OC1CCN(C(=O)CO)CC1 [Example 56, 2-((1-(2-hydroxyacetyl)piperidin-4-yl)oxy)-5-(4-((4-(1-(oxetan-3-yl)piperidin-4-yl)phenyl)amino)-1,3,5-triazin-2-yl)benzonitrile]	2 nM	> 1000 nM	3 nM
CS(=O)(=O)c1ccc(Nc2ncnc(-c3ccc(OC4CCN(C(=O)CO)CC4)c(C#N)c3)n2)cc1 [Example 57, 2-((1-(2-hydroxyacetyl)piperidin-4-yl)oxy)-5-(4-((4-(methylsulfonyl)phenyl)amino)-1,3,5-triazin-2-yl)benzonitrile]	5 nM	> 1000 nM	8 nM
N#Cc1cc(-c2ncnc(Nc3ccc(N4CCN(C5COC5)CC4)cc3)n2)ccc1OCC1CC1 [Example 58, 2-(cyclopropylmethoxy)-5-(4-((4-(4-(oxetan-3-yl)piperazin-1-yl)phenyl)amino)-1,3,5-triazin-2-yl)benzonitrile]	2 nM	455 nM	4 nM
Cn1ccc(Nc2ncnc(-c3ccc(OC4CCOCC4)c(C#N)c3)n2)n1 [Example 59, 5-(4-((1-methyl-1H-pyrazol-3-yl)amino)-1,3,5-triazin-2-yl)-2-((tetrahydro-2H-pyran-4-yl)oxy)benzonitrile]	55 nM	> 1000 nM	83 nM
N#Cc1cc(-c2ncnc(Nc3ccc(N4CCN(C5COC5)CC4)cc3)n2)ccc1OC1CCC(F)(F)CC1 [Example 60, 2-((4,4-difluorocyclohexyl)oxy)-5-(4-((4-(4-(oxetan-3-yl)piperazin-1-yl)phenyl)amino)-1,3,5-triazin-2-yl)benzonitrile]	3 nM	655 nM	7 nM
CN1CCN(c2cccc(Nc3ncnc(-c4ccc(OC5CCOCC5)c(C#N)c4)n3)c2)CC1 [Example 62, 5-(4-((3-(4-methylpiperazin-1-yl)phenyl)amino)-1,3,5-triazin-2-yl)-2-((tetrahydro-2H-pyran-4-yl)oxy)benzonitrile]	5 nM	> 1000 nM	3 nM
N#Cc1cc(-c2ncnc(Nc3ccc(C4CCN(CC(F)F)CC4)cc3)n2)ccc1OC1CCOCC1 [Example 65, 5-(4-((4-(1-(2,2-difluoroethyl)piperidin-4-yl)phenyl)amino)-1,3,5-triazin-2-yl)-2-((tetrahydro-2H-pyran-4-yl)oxy)benzonitrile]	4 nM	> 1000 nM	11 nM
N#Cc1cc(-c2ncnc(Nc3ccc(C(=O)C(F)(F)F)cc3)n2)ccc1OC1CCOCC1 [Example 68, 2-((tetrahydro-2H-pyran-4-yl)oxy)-5-(4-((4-(2,2,2-trifluoroacetyl)phenyl)amino)-1,3,5-triazin-2-yl)benzonitrile]	2 nM	415 nM	11 nM
N#Cc1cc(-c2ncnc(Nc3ccc(N4CCN(C5COC5)CC4)cc3)n2)ccc1OC1CCN(C(=O)C2(O)CC2)CC1 [Example 70, 2-((1-(1-hydroxycyclopropanecarbonyl)piperidin-4-yl)oxy)-5-(4-((4-(4-(oxetan-3-yl)piperazin-1-yl)phenyl)amino)-1,3,5-triazin-2-yl)benzonitrile]	28 nM	918 nM	70 nM
COc1cc(Nc2ncnc(-c3ccc(OC4CCOCC4)c(C#N)c3)n2)ccc1C(=O)N1CCN(C2COC2)CC1 [Example 71, 5-(4-((3-methoxy-4-(4-(oxetan-3-yl)piperazine-1-carbonyl)phenyl)amino)-1,3,5-triazin-2-yl)-2-((tetrahydro-2H-pyran-4-yl)oxy)benzonitrile]	2 nM	> 1000 nM	10 nM
Cn1nccc1Nc1ncnc(-c2ccc(OC3CCOCC3)c(C#N)c2)n1 [Example 73, 5-(4-((1-methyl-1H-pyrazol-5-yl)amino)-1,3,5-triazin-2-yl)-2-((tetrahydro-2H-pyran-4-yl)oxy)benzonitrile]	90 nM	> 1000 nM	202 nM
N#Cc1cc(-c2ncnc(Nc3cc(F)c(N4CCN(C5COC5)CC4)c(F)c3)n2)ccc1OC1CCOCC1 [Example 74, 5-(4-((3,5-difluoro-4-(4-(oxetan-3-yl)piperazin-1-yl)phenyl)amino)-1,3,5-triazin-2-yl)-2-((tetrahydro-2H-pyran-4-yl)oxy)benzonitrile]	3 nM	> 1000 nM	12 nM
N#Cc1cc(-c2ncnc(Nc3ccc(C(=O)NC4COC4)cc3)n2)ccc1OC1CCOCC1 [Example 75, 4-((4-(3-cyano-4-((tetrahydro-2H-pyran-4-yl)oxy)phenyl)-1,3,5-triazin-2-yl)amino)-N-(oxetan-3-yl)benzamide]	3 nM	899 nM	12 nM
COc1ccc(Nc2ncnc(-c3ccc(OC4CCOCC4)c(C#N)c3)n2)cn1 [Example 77, 5-(4-((6-methoxypyridin-3-yl)amino)-1,3,5-triazin-2-yl)-2-((tetrahydro-2H-pyran-4-yl)oxy)benzonitrile]	21 nM	> 1000 nM	55 nM
CC(C)NC(=O)c1ccc(Nc2ncnc(-c3ccc(O[C@@H]4CCN(C(=O)CO)C4)c(C#N)c3)n2)cc1 [Example 83, (R)-4-((4-(3-cyano-4-((1-(2-hydroxyacetyl)pyrrolidin-3-yl)oxy)phenyl)-1,3,5-triazin-2-yl)amino)-N-isopropylbenzamide]	8 nM	604 nM	14 nM
CC(C)NC(=O)c1ccc(Nc2ncnc(-c3ccc(O[C@@H]4CCNC4)c(C#N)c3)n2)cc1 [Example 84, (R)-4-((4-(3-cyano-4-(pyrrolidin-3-yloxy)phenyl)-1,3,5-triazin-2-yl)amino)-N-isopropylbenzamide]	72 nM	805 nM	166 nM

The remaining lines, values ahead:

IC50 (TBK1)	IC50 (hJAK2)	IC50 (IKKε)	Structure (SMILES)
2 nM	> 1000 nM	4 nM	N#Cc1cc(-c2ncnc(Nc3ccc(C4CCN(C5COC5)CC4)cc3)n2)ccc1OC1CCOCC1 [Example 54, 5-(4-((4-(1-(oxetan-3-yl)piperidin-4-yl)phenyl)amino)-1,3,5-triazin-2-yl)-2-((tetrahydro-2H-pyran-4-yl)oxy)benzonitrile]
4 nM	938 nM	8 nM	N#Cc1cc(-c2ncnc(Nc3cccc(N4CCOCC4)c3)n2)ccc1OC1CCOCC1 [Example 63, 5-(4-((3-morpholinophenyl)amino)-1,3,5-triazin-2-yl)-2-((tetrahydro-2H-pyran-4-yl)oxy)benzonitrile]
2 nM	345 nM	5 nM	CS(=O)(=O)N1CCN(c2ccc(Nc3ncnc(-c4ccc(OC5CCOCC5)c(C#N)c4)n3)cc2)CC1 [Example 66, 5-(4-((4-(4-(methylsulfonyl)piperazin-1-yl)phenyl)amino)-1,3,5-triazin-2-yl)-2-((tetrahydro-2H-pyran-4-yl)oxy)benzonitrile]
2 nM	802 nM	6 nM	N#Cc1cc(-c2ncnc(Nc3ccc(N4CCN(C5COC5)CC4)cc3)n2)ccc1OC1CCOCC1 [Example 67, 5-(4-((4-(4-(oxetan-3-yl)piperazin-1-yl)phenyl)amino)-1,3,5-triazin-2-yl)-2-((tetrahydro-2H-pyran-4-yl)oxy)benzonitrile]
6 nM	> 1000 nM	4 nM	N#Cc1cc(-c2ncnc(Nc3cccc(N4CCN(C5COC5)CC4)c3)n2)ccc1OC1CCOCC1 [Example 69, 5-(4-((3-(4-(oxetan-3-yl)piperazin-1-yl)phenyl)amino)-1,3,5-triazin-2-yl)-2-((tetrahydro-2H-pyran-4-yl)oxy)benzonitrile]
5 nM	> 1000 nM	21 nM	COc1ccc(Nc2ncnc(-c3ccc(OC4CCOCC4)c(C#N)c3)n2)cc1 [Example 72, 5-(4-((4-methoxyphenyl)amino)-1,3,5-triazin-2-yl)-2-((tetrahydro-2H-pyran-4-yl)oxy)benzonitrile]
1 nM	575 nM	3 nM	CN1CCC(c2ccc(Nc3ncnc(-c4ccc(OC5CCOCC5)c(C#N)c4)n3)cc2)CC1 [Example 76, 5-(4-((4-(1-methylpiperidin-4-yl)phenyl)amino)-1,3,5-triazin-2-yl)-2-((tetrahydro-2H-pyran-4-yl)oxy)benzonitrile]
6 nM	> 1000 nM	17 nM	COc1cccc(Nc2ncnc(-c3ccc(OC4CCOCC4)c(C#N)c3)n2)c1 [Example 78, 5-(4-((3-methoxyphenyl)amino)-1,3,5-triazin-2-yl)-2-((tetrahydro-2H-pyran-4-yl)oxy)benzonitrile]
8 nM	> 1000 nM	19 nM	N#Cc1cc(-c2ncnc(Nc3ccccc3)n2)ccc1OC1CCOCC1 [Example 79, 5-(4-(phenylamino)-1,3,5-triazin-2-yl)-2-((tetrahydro-2H-pyran-4-yl)oxy)benzonitrile]
19 nM	389 nM	37 nM	N#Cc1cc(-c2ncnc(Nc3ccc(N4CCOCC4)cc3)n2)ccc1O[C@@H]1CCNC1 [Example 80]
94 nM	641 nM	53 nM	N#Cc1cc(-c2ncnc(Nc3cccc(N4CCOCC4)c3)n2)ccc1O[C@@H]1CCNC1 [Example 82, (R)-5-(4-((3-morpholinophenyl)amino)-1,3,5-triazin-2-yl)-2-(pyrrolidin-3-yloxy)benzonitrile]
